Measurements taken from patent US12472193B2, “Methods and compositions for treating and preventing respiratory related diseases and conditions with xylitol-headgroup lipid analogs” (National Jewish Health, priority 2017, dated 2025).
Entries after “also recorded” stand apart in the source; their conditions may differ.

What was measured:
RSV [1] = assay: 18:1 DEPX interference with RSV infection in vivo (BALB/c mice); set-up: species or system mouse; settings: 250 μg 18:1 DEPX intranasal, day 6
RSV [2] = assay: as above; set-up: species or system mouse
Procedure: Six-week-old female BALB/c mice were obtained from Jackson Laboratory. Mice were anesthetized with isoflurane and through intranasal inoculation a 50 μL volume of PBS control, 18:1 DEPX lipid alone, 18:1 DEPX+RSV or RSV only was delivered to mice. Mice were infected with 1×10^7 pfu/mL RSV. 18:1 DEPX liposomes were delivered to mice at a final amount of 100 μg. For lipid antagonism, RSV and 18:1 DEPX were mixed together in PBS prior to inoculation. Five days following initial infection, mice were euthanized by asphyxiation with carbon dioxide following prescribed guidelines by the IACUC. Next, mice were dissected to expose the trachea where a small cut was made to insert a luer stub. The lungs were then lavaged with 1 mL of saline. The chest cavity was opened and the lungs perfused with PBS and then removed. The left lung was homogenized in 1 mL of serum-free DMEM, the homogenates were centrifuged at 3800 rcf for 15 minutes at 4° C. and supernatant was used for quantitative plaque assay analysis. Lower right lungs were fixed overnight in 10% buffered formalin, then dehydrated and paraffin-embedded. Lungs were then sliced and stained with Hematoxylin-Eosin (H&E) for microscopy pictures and histopathological scoring. Total cell counts were determined from BALF and cell types were assessed by cytospin. IFN-γ was quantified by ELISA from the cell-free supernatants of BALF. The upper right lung was homogenized, RNA was extracted, converted to cDNA and RSV replication was determined by quantitative PCR of the F protein.
Female BALB/C mice were obtained from Jackson Laboratories at 6 weeks of age. The experiment consisted of four groups, a PBS control, 18:1 DEPX liposomes alone, 18:1 DEPX liposomes+RSV and RSV alone. Mice were inoculated with RSV at 1×10^7 pfu/mL. 100 μg 18:1 DEPX was the dose tested for protective effects in the mouse lung. Each mouse group underwent intranasal inoculation for delivery of experimental conditions in a final volume of 50 μL. Mice were monitored daily and body weight was recorded. At the height of RSV infection on day 5, the mice were euthanized. Bronchoalveolar lavage fluid (BALF) was collected, the chest cavity was opened and the lungs removed. The left lobe of the lungs was homogenized in serum-free DMEM, centrifuged at 3800 rcf for 15 minutes at 0° C. and the supernatant collected for quantitative plaque assay described in the previous chapter. The lower right lobe of the lung was fixed overnight in 10% buffered formalin and then processed by paraffin embedding, slicing and fixing of the lung to a microscope slide and H&E staining. The upper right lobe of the lung was homogenized, RNA was extracted and converted to cDNA and then quantitative real-time PCR was used to determine RSV replication by quantification of the F protein. Cells within BALF were quantified and assessed for cell populations by cytospin. BALF supernatant was stored and subsequently used for IFNγ quantification.
On day 5 following RSV infection mice were sacrificed by carbon dioxide asphyxiation according to IACUC protocol. Mice were dissected to expose the trachea where a small cut was made for the insertion of a leur stub and the lungs were lavaged with 1 mL of saline. A 20 μL aliquot was obtained from BALF collected and cellular infiltration into the lungs was quantified using a hemocytometer. The remaining lavage fluid was centrifuged at 500×g for 5 minutes, supernatant was collected and cells were resuspended in PBS for cytospin. In studies shown in FIG. 11, mice were challenged with either saline (CNTL), or 10^7 virus (RSV), or virus plus 18:1 DEPX (18:1 DEPX+RSV), or lipid alone (18;1 DEPX). The mice received all agents in a volume of 50 μl applied intranasally. On day 6 the mice were euthanized and the lungs were lavaged with saline. The cells in the lavage were recovered by centrifugation and quantified by counting using a hemocytometer. In RSV infected mice cell numbers were ˜120×10^4. […]

TLR 5 = biological target: T1, TLR 5 (Homo sapiens, UniProt O60602); assay: Flagellin-induced IL-8 in BEAS2B cells (TLR 5 antagonism); format: cell-based; settings: lipid alone
T1 construct: endogenous in cells; host or cells: BEAS2B (ATCC)
Procedure: Human bronchial epithelial cells, BEAS2B, were obtained from ATCC and maintained in bronchial epithelial cell growth medium (BEGM), supplemented with the BulleKit from Lonza in accordance with protocol (M. H. Hudy, S. et al., “Cigarette smoke modulates rhinovirus-induced airway epithelial cell chemokine production.,” Eur. Respir. J., vol. 35, no. 6, pp. 1256-63, June 2010). Cells were cultured at 37 C with 5% carbon dioxide:95% air atmosphere maintained within the incubator. Experiments were conducted in 48-well plates and cells were seated at a density of 5×10^4 per well. After 24 hours, the BEGM medium was replaced with RPMI-1640 medium and incubated for an additional 24 hours. Liposomes were prepared as described above. […] Subsequently, media were collected, diluted and an enzyme-linked immunosorbent assay (ELISA) was performed to quantify IL-8 release by cells.
TLR 5 is an extracellular member of the TLR family. […] To address whether xylitol analogs antagonize TLR activation due to disruption or destruction of all membrane signaling, PX lipids were assessed at the highest concentration used in experiments reported in this example in human bronchial epithelial cells, BEAS2B, for antagonism of flagellin activation of TLR 5. The cytokine, IL-8, was quantified as an output of TLR 5 activation.

[3] = 18:1 DEPX alone, 100 μg intranasal

T1 sequence (O60602 21-858): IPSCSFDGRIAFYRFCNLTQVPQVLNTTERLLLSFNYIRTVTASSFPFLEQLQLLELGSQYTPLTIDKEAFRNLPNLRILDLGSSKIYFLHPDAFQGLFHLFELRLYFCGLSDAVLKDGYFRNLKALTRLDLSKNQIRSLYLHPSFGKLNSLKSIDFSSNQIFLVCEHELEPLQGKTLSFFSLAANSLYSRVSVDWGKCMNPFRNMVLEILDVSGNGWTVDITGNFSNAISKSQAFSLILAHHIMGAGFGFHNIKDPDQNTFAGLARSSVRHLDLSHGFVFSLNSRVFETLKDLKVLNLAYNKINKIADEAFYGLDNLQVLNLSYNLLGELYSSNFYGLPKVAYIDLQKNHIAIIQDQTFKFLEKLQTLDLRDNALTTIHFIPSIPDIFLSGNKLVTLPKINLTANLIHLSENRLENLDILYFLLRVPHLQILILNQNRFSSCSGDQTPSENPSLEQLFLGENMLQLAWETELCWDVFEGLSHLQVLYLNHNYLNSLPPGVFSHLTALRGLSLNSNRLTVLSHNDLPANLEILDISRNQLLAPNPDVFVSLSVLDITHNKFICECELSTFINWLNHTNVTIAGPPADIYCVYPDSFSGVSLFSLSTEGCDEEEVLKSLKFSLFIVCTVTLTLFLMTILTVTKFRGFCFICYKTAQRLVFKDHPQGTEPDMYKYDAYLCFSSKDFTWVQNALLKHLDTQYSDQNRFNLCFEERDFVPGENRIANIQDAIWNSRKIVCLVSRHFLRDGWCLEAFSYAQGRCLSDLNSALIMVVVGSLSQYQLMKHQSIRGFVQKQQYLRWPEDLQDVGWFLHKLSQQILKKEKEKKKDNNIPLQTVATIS

SMILES | reduction of viral burden by a factor of (qRT-PCR, FIGS. 12A and 12B) (RSV [1]) | daily body weight, lipid alone vs control mice (RSV [2]; [3]) | number of cells in lavage, lipid alone vs control (RSV [2]; [3]) | IFNγ in BALF compared to RSV alone (RSV [2]; 18:1 DEPX+RSV mice) | cell numbers in lavage (RSV [2]; 18:1 DEPX+RSV mice, 1 mL BALF, FIG. 11) | IFNγ in BALF (RSV [2]; 18:1 DEPX+RSV mice, day 5) | cellular infiltration into the lungs (BALF) (RSV [2]; 18:1 DEPX+RSV vs RSV alone) | reduction of viral plaque number (RSV [2]; 18:1 DEPX+RSV vs RSV alone) [%] | lung histopathology (RSV [2]; 18:1 DEPX+RSV vs RSV alone, H&E) | reduction in RSV expression (qPCR) (RSV [2]; first viral challenge experiment) [fold] | reduction of RSV expression by a factor of (qPCR) (RSV [2]; latter two experiments) | viral load / RSV infection in lung compared to RSV mice (RSV [2]; plaque assay and qPCR) | IL-8 secretion in the absence of Flagellin stimulus (TLR 5)
CCCCCCCCC=CCCCCCCCCOCC(COP(=O)(O)OCC(O)C(O)C(O)CO)OCCCCCCCCC=CCCCCCCCC (mixture of isomers) [18:1 DEPX, sn-1-O-octadecenyl, sn-2-O-octadecenyl sn-3 glycerol phosphoxylitol] | 6.2 | no difference in daily body weight | no difference in number of cells | reduced; also recorded: significantly lower | ~20×10^4 | Around 1 ng/mL | suppresses an overabundance of cellular infiltration; also recorded: decreased number of inflammatory cellular infiltrates; also recorded: suppresses influx of inflammatory cells; also recorded: reduced cellular infiltrates; also recorded: significantly lower amounts of cellular infiltrates | 50 | appeared less affected by the virus | 2.6 | 6.2 | reduces viral copy number; also recorded: inhibited RSV infection; also recorded: reduced viral load | –
CCCCCC=CCC=CCCCCCCCC(=O)OCC(COP(=O)(O)OCC(O)C(O)C(O)CO)OC(=O)CCCCCCCC=CCC=CCCCCC (mixture of isomers) [18:2 DLPX, sn-1-linoleoyl, sn-2-linoleoyl sn-3 glycerol phosphoxylitol] | – | – | – | – | – | – | – | – | – | – | – | – | stimulate IL-8 secretion over that of the control
CCCCCCC=CCCCCCCCC(=O)OCC(COP(=O)(O)OCC(O)C(O)C(O)CO)OC(=O)CCCCCCCC=CCCCCCC (mixture of isomers) [16:1 DPPX, sn-1-palmitoleoyl, sn-2-palmitoleoyl sn-3 glycerol phosphoxylitol] | – | – | – | – | – | – | – | – | – | – | – | – | stimulate IL-8 secretion over that of the control
